Where a name gives a salt, the structure may show the parent alone.
How the values were obtained:
Assay type in all cases: functional, cell-based
PC-3 = test: Cytotoxicity against human PC-3 cells assessed as reduction in cell viability incubated for 72 hrs by SRB assay; settings: PC-3, 72 h
MDA-MB-231 = test: Cytotoxicity against human MDA-MB-231 cells assessed as reduction in cell viability incubated for 72 hrs by SRB assay; settings: MDA-MB-231, 72 h
HCT-116 = test: Cytotoxicity against human HCT-116 cells assessed as reduction in cell viability incubated for 72 hrs by SRB assay; settings: HCT-116, 72 h
BV-2 = test: Antiinflammatory activity in mouse BV-2 cells assessed as inhibition of LPS-induced NO production pretreated for 3 hrs followed by LPS stimulation measured after 24 hrs by microplate reader assay; settings: dose 2.5-10 µM, time 27.0 hrs, DDE = dose-dependent effect

Row | Structure (SMILES) | IC50 (PC-3) | IC50 (MDA-MB-231) | IC50 (HCT-116) | Activity (BV-2)
1 | CSC(=O)c1c(C(C)C)cc(O)c(C)c1O[C@@H]1O[C@H](CO)[C@@H](O)[C@H](O)[C@H]1O | > 40 µM | > 40 µM | > 40 µM | –
2 | Cc1c(O)cc(C(C)C)c(C)c1O | > 40 µM | > 40 µM | > 40 µM | –
3 | COc1cccc2c1C(=O)c1c(O)c3c(c(O)c1C2=O)C[C@@](O)(C(=O)CO)C[C@@H]3O[C@H]1C[C@H](N)[C@H](O)[C@H](C)O1 [DOXORUBICIN HYDROCHLORIDE] | 0.4 µM | 0.4 µM | – | –
4 | CSC(=O)c1c(O[C@@H]2O[C@H](CO)[C@@H](O)[C@H](O)[C@H]2O)c(C)c(O)c(C)c1C(C)C | > 40 µM | > 40 µM | > 40 µM | Dde
5 | CCc1c(O)c(C)c(O[C@@H]2O[C@H](CO)[C@@H](O)[C@H](O)[C@H]2O)c(C(=O)SC)c1C(C)C | > 40 µM | > 40 µM | > 40 µM | –
6 | COC(=O)c1c(O)c(C)c(O)c(C)c1C(C)C | > 40 µM | > 40 µM | 7.3 µM | –
7 | CCc1c(C)c(O)c(C)c(O)c1C(=O)SC | > 40 µM | > 40 µM | > 40 µM | –
8 | CCc1c(C)c(O)c(C)c(O[C@@H]2O[C@H](CO)[C@@H](O)[C@H](O)[C@H]2O)c1C(=O)SC | > 40 µM | > 40 µM | > 40 µM | Dde
9 | CSC(=O)c1c(O[C@@H]2O[C@H](CO)[C@@H](O)[C@H](O)[C@H]2O)c(C)c(OC(=O)c2c(O)c(C)c(O)c(C)c2C(C)C)c(C)c1C(C)C | – | 11 µM | > 40 µM | –
10 | CCc1c(C)c(O)c(C)c(O[C@@H]2O[C@H](COC(C)=O)[C@@H](O)[C@H](O)[C@H]2O)c1C(=O)SC | – | 16 µM | > 40 µM | –
11 | Cc1c(O)c(C)c(C(C)C)c(O[C@@H]2O[C@H](CO)[C@@H](O)[C@H](O)[C@H]2O)c1O | 4.1 µM | > 40 µM | > 40 µM | Dde
12 | CSC(=O)c1c(O)c(C)c(O)c(C)c1C(C)C | – | > 40 µM | 3.9 µM | Dde
13 | CSC(=O)c1c(O[C@@H]2O[C@H](COC(C)=O)[C@@H](O)[C@H](O)[C@H]2O)c(C)c(O)c(C)c1C(C)C | – | > 40 µM | > 40 µM | –
14 | CSC(=O)c1c(C)c(C)c(O)c(C)c1O[C@@H]1O[C@H](CO)[C@@H](O)[C@H](O)[C@H]1O | > 40 µM | > 40 µM | > 40 µM | –
15 | COc1c(C)c(O)c(C)c(C(C)C)c1C(=O)SC | > 40 µM | 36 µM | > 40 µM | Dde
